Measured values reported in patent publication US12296009B2, “Immunogenic composition for the treatment of cancer” (APGEN THERAPUETICS AB, priority 2017, dated 2025).

Tests used:
HLA class I = HLA class I expression on tumor cells by flow cytometry; assay type: cell-based, human; conditions: for HLA class I induction by IFNγ in combination with BETi: increasing BETi concentrations with a standard concentration of IFNγ (FIG. 5)
Description: (§1) Flow cytometry was done after staining with the following antibodies: anti-human HLA-ABC APC-Cy7 (clone W6/32; Biolegend, San Diego, CA, USA), CD274 BV786 (clone MIH1; BD Biosciences, Franklin lakes, NJ, USA). All data were acquired on a Novocyte 2000 [?] flow cytometer (Acea Biosciences, San Diego, CA, USA) were analyzed using FlowJo software version 10 (Treestar).
(§2) We show herein that treating patient-derived early-passage melanoma cell lines with JQ1 enhances recognition by autologous TIL. […] Along with this, PD-L1 and HLA class I expression were assessed by flow cytometry in pretreated tumor cells to find out whether functional observations in the tumor-TIL co-cultures would be associated with changes in PD-L1 expression or HLA class I expression, both markers being key determinants of T-cell activation upon target cell recognition.

ROAL tumor cells = test: Co-culture of pretreated ROAL tumor cells with autologous TIL, IFNγ ELISA on supernatant; assay type: cell-based, human
Description: (§3) Cells were subsequently trypsinized, washed and co-cultured for 24 hours with autologous tumor-infiltrating lymphocytes (TIL). Co-culture supernatants were assessed by ELISA for IFNγ levels, as a measure for tumor recognition by the TIL.
(§4) The early-passage melanoma cell lines ANRU, ROAL and KADA were established from patients at the oncology clinic at Karolinska University Hospital (ethical permit: #2011/143-32/1) based on a published protocol.21 Mycoplasma-free (MycoAlert kit) cell lines were in their 15th to 45th passage when used in this study.
(§5) Culture and expansion of tumor-infiltrating lymphocytes was done as published before.^4 A piece of the tumor (approximately 0.5 cm3) was minced into 1 mm3 pieces. Each piece was placed in one well of a 24-well plate containing 1 mL/well CellGro medium supplemented with 2% autologous plasma (generated by centrifugation and heat-inactivation of plasma collected on the day of surgery) and 6,000 IU/mL IL-2 (Proleukin, Novartis, Basel, Switzerland). On day 1 of culture, half of the medium volume in each well was replaced with fresh medium supplemented with plasma and IL-2. After 3-4 days of culture, lymphocytes could usually be seen emerging from the tumor piece. Cultures were monitored regularly and split before reaching confluence. After approximately 2 weeks, expanding wells were pooled and counted. […] At the end of culture, cells were harvested, pooled, characterized, counted and frozen.
as §2

JAK1 = JAK1 mRNA expression by RT-qPCR; assay type: cell-based, human; conditions: ANRU, ROAL and A375 cells, JQ1 by itself and in combination
Source text: (§6) (B) mRNA expression levels, measured by RT-qPCR, in ANRU, ROAL and A375 cells of STAT1 and JAK1, two proteins crucially involved in signaling downstream of IFNγ ligation to its cognate receptor.

MYC = MYC expression by western blot; assay type: cell-based; conditions: 72 hours JQ1 alone or in combination with IFNγ
IDO = IDO expression in tumor cells by flow cytometry; assay type: cell-based, human; conditions: early-passage melanoma cell lines, 72 hours JQ1 and/or IFNγ (FIG. 6)
HLA class II = HLA class II expression on tumor cells by flow cytometry; assay type: cell-based, human
CD73 = CD73 expression on tumor cell lines by flow cytometry; assay type: cell-based; conditions: commercially available human tumor cell lines of various origins, 72 hours JQ1 and/or IFNγ (FIG. 7)
A375 tumor cells = test: Co-culture of pretreated A375 tumor cells with allogeneic T cells, IFNγ ELISA on supernatant; assay type: cell-based, human; conditions: A375, 72 hours JQ1 alone or in combination with IFNγ, 24 hours co-culture with allogeneic T cells
ANRU tumor cells = test: Co-culture of pretreated ANRU tumor cells with autologous TIL, IFNγ ELISA on supernatant; assay type: cell-based, human; conditions: for Time kinetics of sensitization for recognition by TIL: ANRU pretreated 12, 24, 48 and 72 hours; for Time kinetics of sensitization for recognition by TIL / T-cell recognition by autologous TIL (IFNγ production in co-culture): 24 hours co-culture
Description: Tumor cells were also co-cultured with unsorted TIL, and TIL without specificity for the aforementioned tumor antigens (designated ‘neg’).
as §3, §4
Culture and expansion of tumor-infiltrating lymphocytes was done as published before.^4 A piece of the tumor (approximately 0.5 cm3) was minced into 1 mm3 pieces. Each piece was placed in one well of a 24-well plate containing 1 mL/well CellGro medium supplemented with 2% autologous plasma (generated by centrifugation and heat-inactivation of plasma collected on the day of surgery) and 6,000 IU/mL IL-2 (Proleukin, Novartis, Basel, Switzerland). On day 1 of culture, half of the medium volume in each well was replaced with fresh medium supplemented with plasma and IL-2. After 3-4 days of culture, lymphocytes could usually be seen emerging from the tumor piece. Cultures were monitored regularly and split before reaching confluence. After approximately 2 weeks, expanding wells were pooled and counted. To generate large T cell numbers, TIL were cultured for approximately 14 days in presence of autologous, irradiated feeders (40 Gy, TIL:feeder ratio 1:50-1:80) with 300 IU/mL IL-2 and 30 ng/mL anti-CD3 antibody (OKT3, Cilag, Zug, Switzerland). Cells were split or medium exchanged as necessary. Cultures were initiated in standing T75 flasks, but transferred to VueLife cell culture bags 1 week before harvest. At the end of culture, cells were harvested, pooled, characterized, counted and frozen.
as §2
To test this, we co-cultured ANRU tumor cells for 24 hours with autologous TIL in the presence and absence of a PD-L1 blocking antibody. Suitable PD-L1 blocking antibodies are commercially available, and include anti-human CD274 (B7-H1, PD-L1) Antibody (clone 29E.2A3; Cat No. 329709; Biolegend), anti-human CD274 (B7-H1, PD-L1) Antibody (clone MIH3; Cat No. 374502; Biolegend), Anti-PD-L1 (CD274) Neutralizing Antibody (Cat No. 71213; BPS Bioscience), PD-L1/B7-H1/CD274 Blocking Antibody (clone R639; Cat No. 10084-R639; Sino Biological) and Human PD-L1/B7-H1 Antibody (Cat No. AF156; R and D Systems). Tumors cell were pretreated for 12, 24, 48 and 72 hours, to check for any PD-L1 induction or suppression over time by flow cytometry, and to define the time kinetics of JQ1-induced sensitization of tumors for recognition by TIL in a co-culture. We reasoned that recognition by autologous TIL should not be affected by PD-L1 blockade at any time point if ANRU tumor cells would be PD-L1 negative under all conditions.
Herein, we addressed the question whether enhanced tumor recognition by autologous TIL after JQ1 treatment is directed at tumor-associated antigens or tumor-specific mutant antigens. Therefore we co-cultured ANRU cells with TIL sorted for their specifity towards either the tumor-associated antigen MART-1, or two different tumor-specific mutant antigens, designated ETV6.9 and NUP210.

PD-L1 = PD-L1 expression on tumor cells by flow cytometry; assay type: cell-based, human; conditions: 72 hours JQ1 and/or IFNγ
Description: as §1, §2

[1] = test system: antigen-presentation machinery (APM); test: Western blot of antigen-presentation machinery components; assay type: cell-based, human; conditions: ANRU, ROAL, KADA and A375 cells, 72 hours JQ1 and/or IFNγ; most clearly in A375
Description: (§7) This was most apparent for HLA class I heavy chain, and overall was most clearly seen in A375 cells.
(§8) To study the time kinetics of these effects, the ANRU cell line was treated in the same way for 12, 24, 48 and 72 hours. […] This was most apparent for HLA class I heavy chain, and overall was most clearly seen in A375 cells.

STAT1 = STAT1 mRNA expression by RT-qPCR; assay type: cell-based, human; conditions: ANRU, ROAL and A375 cells, JQ1 with IFNγ
Source text: as §6

[2] = test system: antigen-presentation machinery (APM); test: mRNA expression of antigen-presentation machinery components by qPCR; assay type: cell-based, human
Description: as §7
Moreover, the presence of a HLA class I blocking antibody always fully abrogated T-cell recognition in co-cultures with pretreated tumors. […] Therefore, we studied mRNA and protein expression of well-known components of the antigen-presentation machinery (APM) after pretreatment with JQ1 alone and/or IFNγ.
as §8

KADA tumor cells = test: Co-culture of pretreated KADA tumor cells with autologous TIL, IFNγ ELISA on supernatant; assay type: cell-based, human
Description: as §3, §4, §5, §2

[3] = pretreatment with the substance alone
[4] = ANRU, 72 hours, IFNγ in the presence of JQ1
[5] = ANRU, 72 hours pretreatment with the substance alone

Compound: CCNC(=O)C[C@@H]1N=C(c2ccc(Cl)cc2)c2cc(OC)ccc2-n2c(C)nnc21 [I-BET762]
- HLA class I induction by IFNγ in combination with BETi (HLA class I; A375, 72 hours): clearly increased
- HLA class I induction by IFNγ in combination with BETi (HLA class I; ROAL, 72 hours): clearly increased

Compound: COc1cc2c(cc1-c1c(C)noc1C)ncc1[nH]c(=O)n([C@H](C)c3ccccn3)c12 [I-BET151]
- HLA class I induction by IFNγ in combination with BETi (HLA class I; A375, 72 hours): clearly increased
- HLA class I induction by IFNγ in combination with BETi (HLA class I; ROAL, 72 hours): clearly increased

Compound: Cc1sc2c(c1C)C(c1ccc(Cl)cc1)=N[C@@H](CC(=O)OC(C)(C)C)c1nnc(C)n1-2 [JQ1]
- Recognition by autologous TIL (IFNγ production in co-culture) (ROAL tumor cells; pretreatment with combination of JQ1 and IFNγ): significantly better and synergistically recognize
- Recognition by autologous TIL (IFNγ production in co-culture) (ROAL tumor cells; [3]): did not sensitize
- JAK1 mRNA expression (JAK1): consistently increases JAK1 expression
- MYC expression (MYC): downregulated
- IFNγ-induced IDO expression (IDO): suppresses IFNγ-induced IDO expression
- HLA class II upregulation by IFNγ (HLA class II; [4]): upregulation of HLA class II was actually suppressed
- Constitutive and IFNγ-induced HLA class II expression (HLA class II; early-passage melanoma cell lines, 72 hours JQ1 and/or IFNγ (FIG. 6)): clearly suppressed
- CD73 induction by IFNγ (CD73): suppresses CD73 induction by IFNγ
- T-cell recognition (IFNγ levels in co-culture supernatants) compared to DMSO-treated tumor cells (A375 tumor cells): strongly and significantly enhanced
- Effect of PD-L1 blocking antibody on recognition of pretreated tumor cells by TIL (ANRU tumor cells; ANRU pretreated 12, 24, 48 and 72 hours with JQ1 and/or IFNγ, 24 hours co-culture with or without PD-L1 blocking antibody): no effect of PD-L1 blockade was seen
- Time kinetics of sensitization for recognition by TIL (ANRU tumor cells): most prominent after pretreatment with JQ1 alone for 72 hours
- Recognition by TIL sorted for MART-1, ETV6.9 and NUP210 specificity (IFNγ in co-culture supernatant) (ANRU tumor cells; ANRU, 0.4 μM JQ1 for 72 hours): improved recognition by all three TIL populations
- T-cell recognition by autologous TIL (IFNγ production in co-culture) (ANRU tumor cells; ANRU, 72 hours pretreatment with JQ1 in combination with IFNγ): did not lead to any increases in T-cell recognition
- T-cell recognition by autologous TIL (IFNγ production in co-culture) (ANRU tumor cells; [5]): dose-dependent increase in T-cell recognition
- PD-L1 expression (PD-L1; ANRU): wholly absent under all conditions
- Constitutive and IFNγ-induced PD-L1 expression (PD-L1; KADA): strongly suppressed
- PD-L1 expression (PD-L1; ROAL): marginal if not absent under all conditions
- Protein level induction of APM components by IFNγ (TAP1, TAP2, Tapasin, HLA class I heavy chain, LMP2, LMP10) [1]: Enhanced induction of APM components by IFNγ
- STAT1 mRNA induction by IFNγ (STAT1): strongly enhances induction of STAT1 by IFNγ
- mRNA induction of APM components by IFNγ, time kinetics ([2]; ANRU, 12, 24, 48 and 72 hours, 0.4 μM JQ1 and/or 25 ng/ml IFNγ): potentiated the induction of APM components by IFNγ at all time points
- mRNA induction of APM components by IFNγ ([2]; ANRU, ROAL, KADA and A375 cells, 72 hours JQ1 and/or IFNγ, most pronounced for HLA class I, B2M, TAP1 and TAP2): potentiated their induction by IFNγ
- HLA class I induction by IFNγ (HLA class I; A375, 72 hours, IFNγ in the presence of JQ1 (FIG. 1)): enhances HLA class I induction by IFNγ
- HLA class I induction by IFNγ in combination with BETi (HLA class I; A375, 72 hours): clear dose-dependent enhancement of HLA class I induction by IFNγ
- HLA class I induction by IFNγ (HLA class I; A549 (lung carcinoma), 72 hours JQ1 and/or IFNγ): enhances HLA class I induction by IFNγ
- HLA class I induction by IFNγ (HLA class I; [4]): consistent enhancement of HLA class I induction by IFNγ
- HLA class I induction by IFNγ (HLA class I; HCT116 (colon carcinoma), 72 hours JQ1 and/or IFNγ): enhances HLA class I induction by IFNγ
- HLA class I induction by IFNγ (HLA class I; HeLa (cervical carcinoma), 72 hours JQ1 and/or IFNγ): enhances HLA class I induction by IFNγ
- HLA class I induction by IFNγ (HLA class I; KADA, 72 hours, IFNγ in the presence of JQ1): reduced HLA class I induction by IFNγ
- HLA class I induction by IFNγ (HLA class I; ROAL, 72 hours, IFNγ in the presence of JQ1): significantly more strongly induced by IFNγ
- HLA class I induction by IFNγ in combination with BETi (HLA class I; ROAL, 72 hours): clear dose-dependent enhancement of HLA class I induction by IFNγ
- Recognition by autologous TIL (IFNγ production in co-culture) (KADA tumor cells; pretreatment with combination of IFNγ and JQ1, versus IFNγ): led to a reduction in tumor cell recognition
- Recognition by autologous TIL (IFNγ production in co-culture) (KADA tumor cells; [3]): did not sensitize

Compound: IFNγ: Interferon gamma (IFNγ), a known physiological cue for sensitization of target cells for T-cell recognition
- Recognition by autologous TIL (IFNγ production in co-culture) (ROAL tumor cells; [3]): did not sensitize the cells
- Time kinetics of sensitization for recognition by TIL (ANRU tumor cells): did not lead to an improvement of tumor recognition
- T-cell recognition by autologous TIL (IFNγ production in co-culture) (ANRU tumor cells; [5]): did not lead to any increases in T-cell recognition
- Recognition by autologous TIL (IFNγ production in co-culture) (KADA tumor cells; [3]): strongly sensitized
